Measured values taken from paper PMC10046369, “Low-Affinity/High-Selectivity Dopamine Transport Inhibition Sufficient to Rescue Cognitive Functions in the Aging Rat” (Biomolecules, 2023).

Columns and labels:
Assay in all cases: biochemical
Design in all cases: KINOMEscan competition binding panel, per cent of control
Conditions in all cases: read-out: %Ctrl @ 2800nM
CSF1R = CSF1R (Homo sapiens, UniProt P07333)
Outline: (§1)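 Competition binding panel (KINOMEscan) across 450 human kinases and disease-relevant mutants, run to the contractor's standard protocol. Values are % control: (test signal − positive control signal)/(negative control signal − positive control signal) × 100, with lower values indicating stronger binding.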

MEK5 = target: T1, MEK5 (Homo sapiens, UniProt Q13163)
T1 construct: gene MAP2K5
Outline: as §1

CHEK1 = CHEK1 (Homo sapiens, UniProt O14757)
Outline: as §1

CAMKK1 = CAMKK1 (Homo sapiens, UniProt Q8N5S9)
Outline: as §1

MINK = target: T2, MINK (Homo sapiens, UniProt Q8N4C8)
T2 construct: gene MINK1
Outline: as §1

PIK3CA(C420R) = PIK3CA(C420R) (Homo sapiens, UniProt P42336, C420R)
Outline: as §1

[1] = target: EGFR(L747-E749del, A750P) (Homo sapiens, UniProt P00533, A750P/DEL747-749)
Outline: as §1

MST2 = target: T3, MST2 (Homo sapiens, UniProt Q13188)
T3 construct: gene STK3
Outline: as §1

FGFR3(G697C) = FGFR3(G697C) (Homo sapiens, UniProt P22607, G697C)
Outline: as §1

ERK1 = target: T4, ERK1 (Homo sapiens, UniProt P27361)
T4 construct: gene MAPK3
Outline: as §1

PIP5K1A = PIP5K1A (Homo sapiens, UniProt Q99755)
Outline: as §1

MAP3K1 = MAP3K1 (Homo sapiens, UniProt Q13233)
Outline: as §1

[2] = target: T5, ABL1(Q252H)-nonphosphorylated (Homo sapiens, UniProt P00519, Q252H)
T5 construct: nonphosphorylated
Outline: as §1

EPHB2 = EPHB2 (Homo sapiens, UniProt P29323)
Outline: as §1

MKK7 = target: T6, MKK7 (Homo sapiens, UniProt O14733)
T6 construct: gene MAP2K7
Outline: as §1

TLK1 = TLK1 (Homo sapiens, UniProt Q9UKI8)
Outline: as §1

DLK = target: T7, DLK (Homo sapiens, UniProt Q12852)
T7 construct: gene MAP3K12
Outline: as §1

BMPR2 = BMPR2 (Homo sapiens, UniProt Q13873)
Outline: as §1

[3] = target: T8, JAK1(JH2domain-pseudokinase) (Homo sapiens, UniProt P23458)
T8 construct: JH2domain-pseudokinase
Outline: as §1

TGFBR1 = TGFBR1 (Homo sapiens, UniProt P36897)
Outline: as §1

BRAF(V600E) = BRAF(V600E) (Homo sapiens, UniProt P15056, V600E)
Outline: as §1

STK35 = STK35 (Homo sapiens, UniProt Q8TDR2)
Outline: as §1

DAPK1 = DAPK1 (Homo sapiens, UniProt P53355)
Outline: as §1

DMPK = DMPK (Homo sapiens, UniProt Q09013)
Outline: as §1

BIKE = target: T9, BIKE (Homo sapiens, UniProt Q9NSY1)
T9 construct: gene BMP2K
Outline: as §1

MRCKB = target: T10, MRCKB (Homo sapiens, UniProt Q9Y5S2)
T10 construct: gene CDC42BPB
Outline: as §1

Chain of CHEK1 (O14757 whole entry): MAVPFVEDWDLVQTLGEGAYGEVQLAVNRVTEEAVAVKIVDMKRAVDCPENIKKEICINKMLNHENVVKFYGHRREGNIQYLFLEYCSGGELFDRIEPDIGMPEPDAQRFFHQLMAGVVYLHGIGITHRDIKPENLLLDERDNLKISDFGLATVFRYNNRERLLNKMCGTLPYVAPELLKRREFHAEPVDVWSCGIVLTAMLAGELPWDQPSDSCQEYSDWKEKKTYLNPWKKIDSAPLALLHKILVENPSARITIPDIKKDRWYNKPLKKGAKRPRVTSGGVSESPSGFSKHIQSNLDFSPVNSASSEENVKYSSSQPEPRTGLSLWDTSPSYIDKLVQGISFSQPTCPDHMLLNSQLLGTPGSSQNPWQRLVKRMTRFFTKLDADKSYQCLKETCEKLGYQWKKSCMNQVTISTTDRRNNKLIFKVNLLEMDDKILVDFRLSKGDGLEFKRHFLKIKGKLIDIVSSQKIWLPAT
Chain of PIP5K1A (Q99755 whole entry): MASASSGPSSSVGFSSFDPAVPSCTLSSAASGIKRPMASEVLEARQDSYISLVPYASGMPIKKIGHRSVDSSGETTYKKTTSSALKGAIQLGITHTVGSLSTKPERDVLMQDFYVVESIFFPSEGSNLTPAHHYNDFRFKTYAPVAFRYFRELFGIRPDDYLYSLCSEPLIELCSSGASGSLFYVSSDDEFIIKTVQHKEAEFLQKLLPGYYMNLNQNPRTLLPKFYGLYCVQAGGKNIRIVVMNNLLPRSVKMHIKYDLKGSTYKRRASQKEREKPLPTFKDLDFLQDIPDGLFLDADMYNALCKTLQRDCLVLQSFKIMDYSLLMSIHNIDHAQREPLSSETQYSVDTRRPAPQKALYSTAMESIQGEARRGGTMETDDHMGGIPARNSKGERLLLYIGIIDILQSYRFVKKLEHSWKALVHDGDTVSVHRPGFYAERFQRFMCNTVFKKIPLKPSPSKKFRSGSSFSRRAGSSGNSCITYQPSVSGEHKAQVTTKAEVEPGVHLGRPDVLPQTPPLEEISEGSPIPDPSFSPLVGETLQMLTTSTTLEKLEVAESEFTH
Chain of DMPK (Q09013 whole entry): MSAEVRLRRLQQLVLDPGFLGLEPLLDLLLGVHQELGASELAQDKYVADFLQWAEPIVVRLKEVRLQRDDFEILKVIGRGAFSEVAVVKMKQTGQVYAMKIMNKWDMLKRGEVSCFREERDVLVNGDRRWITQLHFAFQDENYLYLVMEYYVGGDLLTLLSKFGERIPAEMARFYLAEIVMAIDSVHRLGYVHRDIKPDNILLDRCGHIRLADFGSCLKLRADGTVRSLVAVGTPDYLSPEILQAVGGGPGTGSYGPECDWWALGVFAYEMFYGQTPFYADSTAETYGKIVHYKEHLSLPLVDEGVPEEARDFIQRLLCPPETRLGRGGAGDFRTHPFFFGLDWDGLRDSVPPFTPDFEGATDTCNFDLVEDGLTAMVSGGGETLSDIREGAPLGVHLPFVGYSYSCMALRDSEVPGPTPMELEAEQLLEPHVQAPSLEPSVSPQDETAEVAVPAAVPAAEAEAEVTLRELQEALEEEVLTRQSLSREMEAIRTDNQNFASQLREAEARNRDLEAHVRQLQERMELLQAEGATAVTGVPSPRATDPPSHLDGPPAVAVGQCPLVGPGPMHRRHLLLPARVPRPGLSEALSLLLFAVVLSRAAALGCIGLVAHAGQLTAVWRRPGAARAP
Chain of BMPR2 (Q13873 whole entry): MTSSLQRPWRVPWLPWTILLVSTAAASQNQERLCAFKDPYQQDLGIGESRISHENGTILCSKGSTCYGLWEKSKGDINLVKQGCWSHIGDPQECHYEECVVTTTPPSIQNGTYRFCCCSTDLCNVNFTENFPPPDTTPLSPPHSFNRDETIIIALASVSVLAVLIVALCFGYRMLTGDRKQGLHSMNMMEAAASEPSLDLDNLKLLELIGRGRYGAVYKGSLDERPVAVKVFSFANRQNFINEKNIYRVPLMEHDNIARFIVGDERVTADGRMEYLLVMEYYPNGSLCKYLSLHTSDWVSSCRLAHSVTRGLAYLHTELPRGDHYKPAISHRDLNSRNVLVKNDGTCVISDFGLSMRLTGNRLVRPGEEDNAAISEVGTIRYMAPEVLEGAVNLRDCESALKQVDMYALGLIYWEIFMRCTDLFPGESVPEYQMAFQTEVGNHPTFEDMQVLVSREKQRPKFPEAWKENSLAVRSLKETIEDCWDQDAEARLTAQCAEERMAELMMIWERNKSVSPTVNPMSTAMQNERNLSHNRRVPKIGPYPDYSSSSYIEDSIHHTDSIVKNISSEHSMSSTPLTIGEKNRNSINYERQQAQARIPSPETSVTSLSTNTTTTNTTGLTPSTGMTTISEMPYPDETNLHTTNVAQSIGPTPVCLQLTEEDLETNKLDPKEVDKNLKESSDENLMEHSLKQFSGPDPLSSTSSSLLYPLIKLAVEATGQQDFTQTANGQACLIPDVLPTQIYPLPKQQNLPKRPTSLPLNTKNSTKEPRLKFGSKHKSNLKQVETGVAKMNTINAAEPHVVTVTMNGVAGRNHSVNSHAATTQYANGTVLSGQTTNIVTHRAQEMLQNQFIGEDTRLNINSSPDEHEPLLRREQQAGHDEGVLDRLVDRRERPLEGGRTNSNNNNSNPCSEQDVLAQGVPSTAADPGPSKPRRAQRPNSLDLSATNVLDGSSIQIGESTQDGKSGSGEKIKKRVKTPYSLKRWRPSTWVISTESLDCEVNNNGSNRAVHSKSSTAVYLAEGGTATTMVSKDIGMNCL
Chain of MAP3K1 (Q13233 whole entry): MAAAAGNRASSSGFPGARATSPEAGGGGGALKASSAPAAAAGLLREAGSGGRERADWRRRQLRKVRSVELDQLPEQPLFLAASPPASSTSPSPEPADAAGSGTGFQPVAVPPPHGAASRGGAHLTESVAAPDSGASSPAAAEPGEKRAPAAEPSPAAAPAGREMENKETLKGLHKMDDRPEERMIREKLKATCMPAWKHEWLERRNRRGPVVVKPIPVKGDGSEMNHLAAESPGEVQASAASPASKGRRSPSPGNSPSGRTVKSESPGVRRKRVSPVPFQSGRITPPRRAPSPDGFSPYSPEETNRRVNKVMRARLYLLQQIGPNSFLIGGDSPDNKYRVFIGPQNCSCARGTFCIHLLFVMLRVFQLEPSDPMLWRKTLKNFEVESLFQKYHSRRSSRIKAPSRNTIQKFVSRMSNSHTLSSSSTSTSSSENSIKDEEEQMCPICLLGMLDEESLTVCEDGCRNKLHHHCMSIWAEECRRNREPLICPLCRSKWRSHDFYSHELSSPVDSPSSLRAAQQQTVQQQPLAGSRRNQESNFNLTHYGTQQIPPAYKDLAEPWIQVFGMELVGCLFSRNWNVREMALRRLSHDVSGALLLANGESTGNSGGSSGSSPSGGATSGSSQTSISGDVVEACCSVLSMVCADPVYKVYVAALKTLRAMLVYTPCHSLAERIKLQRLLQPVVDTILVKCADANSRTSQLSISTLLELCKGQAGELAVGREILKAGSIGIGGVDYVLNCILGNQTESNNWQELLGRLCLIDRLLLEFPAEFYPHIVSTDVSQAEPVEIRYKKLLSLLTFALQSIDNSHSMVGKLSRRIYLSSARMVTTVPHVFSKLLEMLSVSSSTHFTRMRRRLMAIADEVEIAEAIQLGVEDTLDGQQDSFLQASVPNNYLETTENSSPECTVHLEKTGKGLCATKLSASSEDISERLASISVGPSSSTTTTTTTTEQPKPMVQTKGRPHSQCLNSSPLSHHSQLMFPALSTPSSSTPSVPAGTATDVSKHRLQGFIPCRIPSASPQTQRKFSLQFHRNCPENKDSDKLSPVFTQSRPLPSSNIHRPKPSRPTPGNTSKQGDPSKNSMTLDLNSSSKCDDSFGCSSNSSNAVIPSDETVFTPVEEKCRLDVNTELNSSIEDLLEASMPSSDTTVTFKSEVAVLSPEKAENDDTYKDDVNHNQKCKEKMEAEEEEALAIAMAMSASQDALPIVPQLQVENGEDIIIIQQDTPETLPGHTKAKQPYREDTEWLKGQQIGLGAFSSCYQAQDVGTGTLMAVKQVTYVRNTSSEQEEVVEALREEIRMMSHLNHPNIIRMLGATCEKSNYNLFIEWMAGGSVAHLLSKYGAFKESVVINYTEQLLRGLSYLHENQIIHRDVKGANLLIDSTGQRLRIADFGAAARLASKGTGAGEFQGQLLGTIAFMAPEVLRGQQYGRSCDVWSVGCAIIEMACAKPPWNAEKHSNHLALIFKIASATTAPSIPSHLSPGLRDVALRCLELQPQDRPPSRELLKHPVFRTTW
Chain of TGFBR1 (P36897 whole entry): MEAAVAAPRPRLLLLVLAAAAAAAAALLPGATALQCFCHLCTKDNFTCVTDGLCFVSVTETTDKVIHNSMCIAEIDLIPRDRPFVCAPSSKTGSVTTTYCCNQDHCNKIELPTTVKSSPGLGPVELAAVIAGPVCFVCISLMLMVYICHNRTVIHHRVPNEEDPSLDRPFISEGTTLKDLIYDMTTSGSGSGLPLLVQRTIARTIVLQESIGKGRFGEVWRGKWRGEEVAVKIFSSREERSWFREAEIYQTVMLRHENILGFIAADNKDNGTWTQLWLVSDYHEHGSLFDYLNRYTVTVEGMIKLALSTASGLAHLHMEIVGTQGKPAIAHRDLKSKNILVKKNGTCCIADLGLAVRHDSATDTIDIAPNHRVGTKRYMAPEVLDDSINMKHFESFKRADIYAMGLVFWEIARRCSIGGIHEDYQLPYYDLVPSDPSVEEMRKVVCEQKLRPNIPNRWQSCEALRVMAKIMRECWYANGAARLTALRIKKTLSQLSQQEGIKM

## [O-][S@@+](Cc1cncs1)C(c1ccccc1)c1ccccc1 [S-CE-123, (S)-5-((Benzhydrylsulfinyl)Methyl)Thiazole]
CSF1R
  remaining binding at 2.8 µM: 76%
MEK5
  remaining binding at 2.8 µM: 98%
CHEK1
  remaining binding at 2.8 µM: 89%
CAMKK1
  remaining binding at 2.8 µM: 95%
MINK
  remaining binding at 2.8 µM: 87%
PIK3CA(C420R)
  remaining binding at 2.8 µM: 92%
[1]
  remaining binding at 2.8 µM: 93%
MST2
  remaining binding at 2.8 µM: 80%
FGFR3(G697C)
  remaining binding at 2.8 µM: 96%
ERK1
  remaining binding at 2.8 µM: 91%
PIP5K1A
  remaining binding at 2.8 µM: 95%
MAP3K1
  remaining binding at 2.8 µM: 85%
[2]
  remaining binding at 2.8 µM: 66%
EPHB2
  remaining binding at 2.8 µM: 89%
MKK7
  remaining binding at 2.8 µM: 100%
TLK1
  remaining binding at 2.8 µM: 91%
DLK
  remaining binding at 2.8 µM: 100%
BMPR2
  remaining binding at 2.8 µM: 100%
[3]
  remaining binding at 2.8 µM: 92%
TGFBR1
  remaining binding at 2.8 µM: 86%
BRAF(V600E)
  remaining binding at 2.8 µM: 100%
STK35
  remaining binding at 2.8 µM: 98%
DAPK1
  remaining binding at 2.8 µM: 91%
DMPK
  remaining binding at 2.8 µM: 96%
BIKE
  remaining binding at 2.8 µM: 97%
MRCKB
  remaining binding at 2.8 µM: 98%
